We go through one compound from publication PMC4445529, “Small molecule inhibition of group I p21-activated kinases in breast cancer induces apoptosis and potentiates the activity of microtubule stabilizing agents” (Breast Cancer Research : BCR, 2015).

In the experiment the target is T1, PAK4 (Homo sapiens, UniProt O96013).
T1 construct: kinase domain
Kind of experiment: Z'-LYTE FRET peptide kinase assay with recombinant enzyme. It counts as biochemical.

T1 sequence (O96013 291-591 limits assumed): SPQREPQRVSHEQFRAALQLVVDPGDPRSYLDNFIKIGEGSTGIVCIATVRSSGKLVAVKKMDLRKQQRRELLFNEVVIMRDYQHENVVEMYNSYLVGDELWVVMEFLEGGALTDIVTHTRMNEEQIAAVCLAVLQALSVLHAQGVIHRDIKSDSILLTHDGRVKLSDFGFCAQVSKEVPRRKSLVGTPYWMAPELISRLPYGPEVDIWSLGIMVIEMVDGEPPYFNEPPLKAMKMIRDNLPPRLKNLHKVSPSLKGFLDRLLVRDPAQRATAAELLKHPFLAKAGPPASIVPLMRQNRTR

In general, Ki refers to a measure of affinity in units of concentration, obtained from inhibition or displacement. As to `CCn1c(=O)c(-c2ccc(-c3cncc(C)n3)cc2Cl)cc2cnc(NCCC3CCN(C)CC3)nc21` [FRAX1036], the Ki turned out to be 2400 nM.
